Active and inactive are the calls of the source. The calls are words filed in the database; no cut-off is given here.
Target: Human immunodeficiency virus type 1 reverse transcriptase (Human immunodeficiency virus 1) (UniProt Q72547)
Assay: Inhibition of HIV1 reverse transcriptase at 10 uM

Activity: Active
SMILES: CCCC(=O)OC(C(CC)C(C)C)C(OC(=O)CCC)[C@@H](C)[C@H]1[C@@H](O)[C@H](OC(C)=O)[C@H]2[C@@H]3CCC4C[C@H](OS(=O)(=O)O)[C@@H](OS(=O)(=O)O)C[C@]4(C)[C@H]3CC[C@@]21C (stereo partly specified)
